Data published in patent publication US12319655B2, “RAF kinase inhibitors and methods of use thereof” (Deciphera Pharmaceuticals, LLC, priority 2021, dated 2025).

Assays:
[1] = target: A-Raf kinase (SEQ. ID No: 1) (Homo sapiens (Human), UniProt P10398, Y301D/Y302D); assay: Biochemical Assay for A-Raf (2); details: Table J, biochemical assay (2); read-out: ARAF (2)
Procedure: Biochemical Assay for A-Raf (2)
Activity of A-Raf kinase (SEQ. ID No: 1) was determined spectroscopically using a coupled pyruvate kinase/lactate dehydrogenase assay that continuously monitors the ATP hydrolysis-dependent oxidation of NADH (e.g., Schindler et al., Science, 2000, 289, 1938-1942). Assays were conducted in 384-well plates (25 μL final volume) using 20 nM A-Raf (Eurofins), 1.5 units pyruvate kinase, 2.1 units lactate dehydrogenase, 1 mM phosphoenol pyruvate, 0.7 mM NADH, 100 nM MEK (SignalChem), and 1 mM ATP in assay buffer (100 mM Tris, pH 7.5, 15 mM MgCl2, 0.5 mM DTT, 0.1% octyl-glucoside, 0.002% (w/v) BSA, and 0.002% Triton X-100). Inhibition of A-Raf was measured by adding serial diluted test compound (final assay concentration of 1% DMSO). A decrease in absorption at 340 nm was monitored hourly for 4 h at 30° C. on a multi-mode microplate reader (BioTek). The reaction rate was calculated using the 3 to 4 h time frame. The reaction rate at each concentration of compound was converted to percent inhibition using controls (i.e., reaction with no test compound and reaction with a known inhibitor) and IC50 values were calculated by fitting a four-parameter sigmoidal curve to the data using Prism (GraphPad software).

[2] = test system: A375 cells; assay: A375 Cell Proliferation Assay (2); format: cell-based; details: Homo sapiens, A-375
Procedure: A375 Cell Proliferation Assay (2)
A375 cells (catalog (#CRL-1619) are obtained from the American Type Culture Collect (ATTC, Manassas, VA). Briefly, cells were grown in DMEM High Glucose supplemented with 10% characterized fetal bovine serum (Invitrogen, Carlsbad, CA) and 1% Penicillin/Streptomycin/L-Glutamine at 37° C., 5% CO2, and 95% humidity. Cells are expanded until reaching 70-95% confluency at which point they are sub-cultured or harvested for assay use. Using the Beckman Coulter Echo 650, a serial dilution of test compound is dispensed into a 384-well black clear bottom plate in triplicate. Six hundred twenty-five cells are added per well in 50 μL complete growth medium in the 384-well plate. Plates are incubated for 67-72 h at 37° C., 5% CO2, and 95% humidity. At the end of the incubation, 10 μL of a 440 μM solution of resazurin (Sigma, St. Louis, MO) in PBS is added to each well of the plate and plates are incubated for an additional 3-6 h at 37° C., 5% CO2, and 95% humidity. Plates are read on a Synergy2 or equivalent reader (Biotek, Winooski VT) using an excitation of 540 nm and an emission of 600 nm. Data is analyzed using Prism software (GraphPad, San Diego, CA) to calculate IC50 values.

Chain of A-Raf kinase (SEQ. ID No: 1) (P10398 other isoform, or with tags, fused parts or gaps Y301D (already in the parent)/Y302D (already in the parent)): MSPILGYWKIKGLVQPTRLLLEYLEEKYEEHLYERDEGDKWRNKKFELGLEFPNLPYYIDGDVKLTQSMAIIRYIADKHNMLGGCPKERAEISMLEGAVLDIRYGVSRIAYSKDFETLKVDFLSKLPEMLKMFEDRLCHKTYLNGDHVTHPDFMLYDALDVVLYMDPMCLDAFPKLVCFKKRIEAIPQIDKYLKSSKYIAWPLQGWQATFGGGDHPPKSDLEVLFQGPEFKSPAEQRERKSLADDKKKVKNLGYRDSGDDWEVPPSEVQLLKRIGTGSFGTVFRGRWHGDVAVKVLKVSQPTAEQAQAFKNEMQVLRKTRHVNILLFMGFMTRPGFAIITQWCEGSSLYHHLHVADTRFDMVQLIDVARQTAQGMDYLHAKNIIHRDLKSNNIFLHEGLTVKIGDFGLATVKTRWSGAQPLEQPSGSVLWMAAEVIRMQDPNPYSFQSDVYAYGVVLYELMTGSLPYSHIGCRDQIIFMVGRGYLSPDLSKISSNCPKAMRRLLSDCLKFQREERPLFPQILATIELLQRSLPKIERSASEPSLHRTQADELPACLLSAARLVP

SMILES	IC50 [1] [nM]	IC50 [2] [nM]
Cc1ccc(NC(=O)c2ccnc(C(C)(C)F)c2)cc1-c1ccnc(-c2ccnc(C(N)=O)c2)c1 [Example 476]	500 to 1000	≤ 100
CNC(=O)c1cc(-c2cc(-c3cc(NC(=O)c4cnnc(C(F)(F)F)c4)ccc3C)ccn2)ccn1 [Example 477]	1000 to 10000	1000 to 10000
CNC(=O)c1cc(-c2cc(-c3cc(NC(=O)c4ccnc(C(C)(C)F)c4)cc(F)c3F)ccn2)ccn1 [Example 478]	1000 to 10000	1000 to 10000
CNC(=O)c1cc(-c2cc(-c3cc(NC(=O)c4ccnc(C(C)(C)F)c4)ccc3F)ccn2)ccn1 [Example 479]	100 to 500	100 to 500
CNC(=O)c1cc(-c2cc(-c3cc(NC(=O)c4ccnc(C(C)(C)F)c4)cc(F)c3C)ccn2)ccn1 [Example 480]	1000 to 10000	100 to 500
CNC(=O)c1cc(-c2cc(-c3cc(NC(=O)c4ccnc(C(C)(C)F)c4)ccn3)ccn2)ccn1 [Example 481]	1000 to 10000	1000 to 10000
CNC(=O)c1cc(-c2cc(-c3cc(NC(=O)c4ccnc(C(C)(C)F)c4)c(F)cc3F)ccn2)ccn1 [Example 482]	500 to 1000	100 to 500
Cc1cc(-c2cc(NC(=O)c3ccnc(C(C)(C)F)c3)ccc2C)cc(-c2ccnc(C#N)c2)n1 [Example 483]	1000 to 10000	1000 to 10000
Cc1cc(-c2cc(NC(=O)c3ccnc(C(C)(C)F)c3)ccc2C)cc(-c2ccnc(C(N)=O)c2)n1 [Example 484]	500 to 1000	≤ 100
